Results on seven compounds are retold here after PubChem BioAssay (NCI).

Test systems include A498 renal; ACHN renal; CAKI-1 renal; EKVX NSCLC; HCT-116 colon; HT29 colon; KM12 colon; MDA-MB-435; NCI-H23 lung; SW-620 colon.
What all share (test): NCI-60 cell line screen, 48 h

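1) Cells in 96-well plates. 2) Compound, 48 h, 5 concentrations. 3) Linear interpolation between surrounding doses. 4) Unreached endpoint = highest concentration. Here, GI50 denotes the concentration required for 50% inhibition of growth. TGI: concentration producing complete growth inhibition.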

Turning to `O=[N+]([O-])O.[NH-]C1CCCCC1[NH-].[NH-]C1CCCCC1[NH-].[NH-]C1CCCCC1[NH-].[OH-].[OH-].[OH-].[Pt+4].[Pt+4].[Pt+4]` (stereo unspecified), the GI50 in the test with A498 renal was 0.278 µM; in the test on ACHN renal it was 0.164 µM; in the test on CAKI-1 renal it was 0.222 µM; in the test with EKVX NSCLC, 30.1 µM; in the test on HCT-116 colon, 0.0709 µM; in the test with HT29 colon, 0.0889 µM. In addition, the results for the GI50 with KM12 colon, with MDA-MB-435 and with NCI-H23 lung were 4.05 µM, 0.367 µM and 0.359 µM, respectively. For the same compound, the TGI in the test on A498 renal is 35.1 µM; with CAKI-1 renal it was 9.33 µM; in the test on EKVX NSCLC, greater than 100 µM; in the test with KM12 colon, greater than 100 µM; in the test with MDA-MB-435, 6.3 µM; with NCI-H23 lung, 4.7 µM. The compound further came in with a TGI in the test with SW-620 colon greater than 100 µM.
Regarding `O=C(CN=Cc1cccs1)CSC(c1ccccc1)c1ccccc1`, the GI50 is 16.6 µM in the test on A498 renal; 28.8 µM with ACHN renal; 24.9 µM in the test on CAKI-1 renal; 26.2 µM with EKVX NSCLC; 16.4 µM with HCT-116 colon; 27.7 µM with HT29 colon. For the same compound, the GI50 in the test on KM12 colon is 21 µM; in the test with MDA-MB-435 it was 17.7 µM; in the test on NCI-H23 lung it was 29.2 µM; with SW-620 colon, 29.8 µM. Besides, the TGI turned out to be 45.8 µM in the test with A498 renal; 79.6 µM with ACHN renal; 67.1 µM in the test on CAKI-1 renal; 96.9 µM in the test on EKVX NSCLC; 40.7 µM with HCT-116 colon; 99.2 µM in the test with HT29 colon. For the same compound, the TGI in the test with KM12 colon is 52.5 µM; in the test with MDA-MB-435, 36.3 µM; with NCI-H23 lung it was greater than 100 µM; in the test on SW-620 colon it was greater than 100 µM.
Consider `COc1ncnc2c(-c3ccco3)cn(COCc3ccccc3)c12`, for which the GI50 in the test on A498 renal was 0.697 µM; in the test with ACHN renal, greater than 50 µM; in the test on CAKI-1 renal, greater than 50 µM; in the test with EKVX NSCLC, 11.5 µM; in the test on HCT-116 colon it was 3.76 µM; in the test on HT29 colon, greater than 50 µM. In addition, the GI50 in the test on KM12 colon, in the test with MDA-MB-435, in the test on NCI-H23 lung and in the test with SW-620 colon was greater than 50 µM throughout. Moreover, the TGI with A498 renal, in the test with ACHN renal, in the test with CAKI-1 renal, in the test on EKVX NSCLC, with HCT-116 colon and in the test with HT29 colon was greater than 50 µM throughout. Besides, the TGI in the test on KM12 colon, with MDA-MB-435, with NCI-H23 lung and with SW-620 colon was greater than 50 µM throughout.
For the compound `CCCCCCCCCCCCCCCC(=O)OCC1OC(n2ccc(N)nc2=O)C(O)C1O` (stereo unspecified), the TGI in the test with A498 renal was greater than 100 µM; in the test with ACHN renal, greater than 44.2 µM; in the test on CAKI-1 renal, greater than 100 µM; in the test on EKVX NSCLC, greater than 100 µM; in the test with HCT-116 colon, greater than 100 µM; in the test with HT29 colon, greater than 100 µM. Besides, the TGI in the test on KM12 colon was greater than 100 µM; with MDA-MB-435, greater than 100 µM; with NCI-H23 lung it was greater than 41.6 µM; with SW-620 colon it was greater than 100 µM.
Regarding `CC(C)(C)NCCC(O)c1cc(C(F)(F)F)nc2c(C(F)(F)F)cccc12` (stereo unspecified), the TGI with A498 renal stood at 28.3 µM; with ACHN renal, 21.1 µM; with CAKI-1 renal, 9.97 µM; with EKVX NSCLC, 27.2 µM; in the test with HCT-116 colon, 17.1 µM; with HT29 colon, 20.1 µM. Moreover, the TGI is 7.58 µM with KM12 colon, 27.6 µM in the test with MDA-MB-435, 9.74 µM with NCI-H23 lung and greater than 52.6 µM in the test on SW-620 colon.
With `Nc1ccc2c(c1)CN1C(=O)c3ccccc3C1=N2`, the TGI in the test with A498 renal was 104 µM; with ACHN renal it was greater than 125 µM; in the test with CAKI-1 renal, greater than 70.3 µM; in the test with EKVX NSCLC it was greater than 125 µM; in the test with HCT-116 colon, greater than 125 µM; in the test with HT29 colon, greater than 125 µM. For the same compound, the TGI in the test with KM12 colon, with MDA-MB-435, in the test with NCI-H23 lung and with SW-620 colon was greater than 125 µM each time. Besides, the GI50 was 34 µM in the test on ACHN renal; 72.2 µM in the test on EKVX NSCLC; 29.7 µM with HCT-116 colon; 19.2 µM in the test on HT29 colon; 37.9 µM in the test with KM12 colon.
Regarding `CC(C)n1nc(C#Cc2cccc(NC(=O)c3cccc(C(F)(F)F)c3)c2)c2c(N)ncnc21`, the GI50 is 1.07 µM with A498 renal; 1.01 µM in the test with ACHN renal; 2.06 µM in the test with CAKI-1 renal; 3.46 µM in the test with EKVX NSCLC; 0.308 µM with HCT-116 colon; 0.485 µM in the test on HT29 colon. In addition, the GI50 in the test on KM12 colon is 3.41 µM; in the test on MDA-MB-435, 1.67 µM; with NCI-H23 lung it was 1.95 µM; with SW-620 colon it was 2.2 µM. The TGI in the test on A498 renal was 2.51 µM; with ACHN renal it was 5.72 µM; in the test on CAKI-1 renal it was 12.8 µM; in the test with EKVX NSCLC it was greater than 100 µM; in the test with HCT-116 colon, 3.89 µM; in the test on HT29 colon it was greater than 100 µM. For the same compound, the TGI in the test on KM12 colon is greater than 100 µM; in the test on MDA-MB-435, greater than 100 µM; with NCI-H23 lung it was 22.8 µM; in the test with SW-620 colon, greater than 100 µM.
